# Experimental data as given in BindingDB's records for patent US20250034134 (Wuhan Humanwell Innovative Drug Research and Development …, 2025).
# pIC50: −log10 of the molar value.
# Target: T1, 15-hydroxyprostaglandin dehydrogenase [NAD(+)] (Homo sapiens, UniProt P15428)
# T1 sequence (P15428 whole entry): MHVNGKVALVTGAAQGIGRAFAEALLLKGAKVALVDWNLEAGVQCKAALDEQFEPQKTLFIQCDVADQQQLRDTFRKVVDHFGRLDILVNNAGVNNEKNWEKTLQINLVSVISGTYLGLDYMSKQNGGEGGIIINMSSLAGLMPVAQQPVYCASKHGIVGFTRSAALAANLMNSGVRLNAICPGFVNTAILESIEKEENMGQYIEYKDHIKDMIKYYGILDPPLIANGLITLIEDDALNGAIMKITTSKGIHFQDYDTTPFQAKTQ
# Assay: Inhibition test of compounds on 15-PGDH enzyme
# Method: 15-PGDH (R&D Systems, Cat. No.: 5660-DH-010) was prepared to twice the final concentration, i.e., 30 nM, using Assay Buffer (50 mM Tris-HCl, pH 7.5, 0.01vol % Tween 20). The obtained mixture was then added to a 384-well white plate (Cisbio Bioassays, Cat. No. 66PL384025) at 8 μL/well. Negative control wells (with Assay Buffer only and without enzyme) were set. The compound was then prepared to 4 times the final concentration using Assay Buffer, i.e., diluted 3-fold to 10 concentrations starting from 4000 nM. The obtained mixture was added to the above white plate at 4 μL/well, mixed well, centrifuged at 1000 rpm for 1 minute, and incubated at 25° C. for 10 minutes. Both positive control wells (with 15-PGDH only) and negative control wells (without 15-PGDH) were set. A mixture of NAD+(Select, Cat. No. S2518) and PGE2 (R&D Systems, Cat. No.: 2296/10) was then prepared using Assay Buffer. NAD+ and PGE2 were prepared to four times their final concentrations, i.e., 2 mM and 0.12 mM, respectively, using Assay Buffer. The obtained mixture was then added to the above white plate at 4 μL/well, mixed well, centrifuged at 1000 rpm for 1 minute, and incubated at 25° C. for 30 minutes for the reaction. The fluorescence was detected at an excitation wavelength of 340 nm and an emission wavelength of 485 nm using instrument TECAN SPARK 20M.
row,SMILES,pIC50
1,"CN1CC2=CC(N3CC4CC4C4C=C(C(=O)N5CCC(F)(F)CC5)C=NC43)CN=C2C1=O (configuration not stated) [US20250034134, Compound I-2]",8.29
2,"CNC(=O)c1ccc(N2CC3CC3C3C=C(C(=O)N4CCC(F)(F)CC4)C=NC32)cc1F (configuration not stated) [US20250034134, Compound I-9]",8.02
3,"Cn1ccc2c(c1=O)=CCC(N1C[C@H]3C[C@@H]3C3C=C(C(=O)N4CCC(F)(F)CC4)C=NC31)C=2 (some centres not stated) [US20250034134, Compound I-12B]",8.13
4,"CN1C=NC2C=C(N3CC4CC4C4C=C(C(=O)N5CCC(F)(F)CC5)C=CC43)C=NC2C1=O (configuration not stated) [US20250034134, Compound I-15]",8.24
5,"O=C(C1=CC2C3CC3CN(C3=CC4NC=NN4C=C3)C2N=C1)N1CCC(F)(F)CC1 (configuration not stated) [US20250034134, Compound I-16]",8.27
6,"Cn1nc2cc(N3CC4CC4C4C=C(C(=O)N5CCOCC5)C=NC43)ccn2c1=O (configuration not stated) [US20250034134, Compound I-22]",7.99
7,"Cn1nc2cc(N3CC4CC4C4C=C(C(=O)N5CCCC(C(F)(F)F)C5)C=NC43)ccn2c1=O (configuration not stated) [US20250034134, Compound I-26]",8.00
8,"CN1NC2C=C(N3CC4CC4C4C=C(C(=O)N5CCCC(F)C5)C=NC43)C=CN2C1=O (configuration not stated) [US20250034134, Compound I-27]",8.24
9,"CN1NC2C=C(N3CC4CC4C4C=C(C(=O)N5CC6CC6C5)C=NC43)C=CN2C1=O (configuration not stated) [US20250034134, Compound I-29]",8.28
10,"CN1NC2C=C(N3CC4CC4C4C=C(C(=O)N5CCC[C@@H](CF)C5)C=NC43)C=CN2C1=O (some centres not stated) [US20250034134, Compound I-30]",8.22

# These reach a higher pIC50. Values come first.
row,pIC50,SMILES
1,8.45,"CN1NC2C=C(N3C[C@H]4C[C@@H]4C4C=C(C(=O)N5CCC(F)(F)CC5)C=NC43)C=CN2C1=O (some centres not stated) [US20250034134, Compound I-3B]"
2,8.42,"N#Cc1ccc(N2CC3CC3C3C=C(C(=O)N4CCC(F)(F)CC4)C=NC32)cc1 (configuration not stated) [US20250034134, Compound I-11]"
3,8.82,"Cn1ccc2c(c1=O)=CCC(N1C[C@@H]3C[C@@H]3C3C=C(C(=O)N4CCC(F)(F)CC4)C=NC31)C=2 (some centres not stated) [US20250034134, Compound I-12A]"
4,8.68,"Cn1ccc2c(c1=O)=CCC(N1CC3CC3C3C=C(C(=O)N4CCC(F)(F)CC4)C=NC31)C=2 (configuration not stated) [US20250034134, Compound I-12]"
5,8.35,"O=C(C1=CC2C3CC3CN(C3=CC4NN=CN4C=C3)C2N=C1)N1CCC(F)(F)CC1 (configuration not stated) [US20250034134, Compound I-17]"
6,8.43,"CN1C(=O)C2=NCC(N3CC4CC4C4C=C(C(=O)N5CCC(F)(F)CC5)C=NC43)C=C2C12CC2 (configuration not stated) [US20250034134, Compound I-19]"
7,8.31,"CN1NC2C=C(N3CC4CC4C4C=C(C(=O)N5CCC(F)(F)C5)C=NC43)C=CN2C1=O (configuration not stated) [US20250034134, Compound I-21]"
8,8.37,"CN1NC2C=C(N3CC4CC4C4C=C(C(=O)N5CCCC(C(F)F)C5)C=NC43)C=CN2C1=O (configuration not stated) [US20250034134, Compound I-23]"
9,8.37,"CN1NC2C=C(N3CC4CC4C4C=C(C(=O)N5CCCC(F)(F)C5)C=NC43)C=CN2C1=O (configuration not stated) [US20250034134, Compound I-24]"
10,8.42,"[2H]C([2H])([2H])N1NC2C=C(N3C[C@H]4C[C@@H]4C4C=C(C(=O)N5CCC(F)(F)CC5)C=NC43)C=CN2C1=O (some centres not stated) [US20250034134, Compound I-25B]"
11,8.59,"[2H]C([2H])([2H])N1NC2C=C(N3CC4CC4C4C=C(C(=O)N5CCC(F)(F)CC5)C=NC43)C=CN2C1=O (configuration not stated) [US20250034134, Compound I-25]"
12,8.77,"CN1NC2C=C(N3CC4CC4C4C=C(C(=O)N5CCC6(CC5)CC6)C=NC43)C=CN2C1=O (configuration not stated) [US20250034134, Compound I-28]"
